Reference: US11351347B2, “Vacuum-assisted drug delivery device and method” (VacuMed, LLC., priority 2014, dated 2022)

Assay: Vacuum-assisted trans-epithelial delivery of riboflavin into rabbit corneas, compared with standard delivery after epithelium removal
Type: in vivo
Conditions: trans-epithelial vacuum delivery through intact epithelium, varying application time periods; compared with standard method in which the epithelium is surgically removed
Description: The device and method herein were tested to verify the effectiveness of the vacuum delivery system and to quantify concentrations of the standard formulation of riboflavin that is used in the process of cross-linking collagen corneal tissue in rabbit corneas. The tests employed the present invention to facilitate trans-epithelial delivery of riboflavin at varying application time periods, and compare the concentrations achieved with the concentration of riboflavin achieved through the standard method of riboflavin delivery (i.e., in which the epithelium is surgically removed). […] In other embodiments, high levels of vacuum, higher riboflavin concentrations, and the use of penetration enhancers may be used to increase the amount of riboflavin diffusion into the cornea per unit time. These animal studies clearly provide a proof of principle for the efficacious delivery of riboflavin into the cornea, through an intact epithelium, using the device and method of this invention. These studies also provide critical concentration/treatment time data for utilizing this invention.

Cc1cc2nc3c(=O)[nH]c(=O)nc-3n(C[C@H](O)[C@H](O)[C@H](O)CO)c2cc1C [riboflavin]
riboflavin delivery to the cornea (concentration achieved): equivalent to the effect of removing the corneal epithelium
